# From US11661431B2, “Thienopyrrole compounds” (Gilead Sciences, Inc., priority 2021, dated 2023)
# What was measured:
# [1] = molecular target: TLR7 (Homo sapiens (Human), UniProt Q9NYK1); experiment: TLR7 human peripheral blood mononuclear cell (PBMC) cell-based assay (GS-986 as agonist; IL-6 and IFNα readout); settings: human PBMCs, TLR7 agonist GS-986 at 400 nM, 6 hours, antagonist potency; read-out: TLR-7 EC50
# Experimental: Human peripheral blood mononuclear cells (PBMCs) consist of lymphocytes, monocytes and dendritic cells that express TLR7, TLR8 and TLR9. These cells respond to TLR7, TLR8 and TLR9 ligand stimulation and produce cytokines and chemokines in vitro and in vivo. Human PBMCs are therefore suitable to be used in a cell-based assay to assess the in vitro potency of a TLR 7, 8, and/or 9 antagonist.
# After counting, the cell density was adjusted to 2 million cells/ml and incubated for 1 hour at 37° C., 5% CO2 for recovery. Following the recovery, the cells were plated by adding 50 μl per well (100,000 cells) to 384-well cell culture plates (Greiner) containing 250 nl of test antagonists in 100% DMSO per well, in a 10 points dose response in quadruplicates. PBMCs were incubated in the presence of test antagonists for one hour at 37° C., 5% CO2 before being stimulated with a TLR7 or TLR9agonist. […] PBMCs were incubated in the presence of the test antagonist and the TLR7 (or TLR9) agonist for an additional 6 hours at 37° C., 5% CO2. At the end of the incubation, the cell culture plates were centrifuged at 500 g for 5 min, and the cell culture supernatant was collected. The level of cytokines (IL-6 and IFNα) in the supernatant was measured by electrochemiluminescence immunoassays (Mesoscale Discovery) following manufacturer's recommended protocols.
# [2] = molecular target: TLR8 (Homo sapiens (Human), UniProt Q9NR97); experiment: TLR8 human peripheral blood mononuclear cell (PBMC) cell-based assay (Compound A as agonist; TNFα and IL12p40 readout); settings: human PBMCs, TLR8 agonist Compound A at 800 nM, 6 hours, antagonist potency; read-out: TLR-8 EC50
# TLR8, sequence (Q9NR97 27-1041): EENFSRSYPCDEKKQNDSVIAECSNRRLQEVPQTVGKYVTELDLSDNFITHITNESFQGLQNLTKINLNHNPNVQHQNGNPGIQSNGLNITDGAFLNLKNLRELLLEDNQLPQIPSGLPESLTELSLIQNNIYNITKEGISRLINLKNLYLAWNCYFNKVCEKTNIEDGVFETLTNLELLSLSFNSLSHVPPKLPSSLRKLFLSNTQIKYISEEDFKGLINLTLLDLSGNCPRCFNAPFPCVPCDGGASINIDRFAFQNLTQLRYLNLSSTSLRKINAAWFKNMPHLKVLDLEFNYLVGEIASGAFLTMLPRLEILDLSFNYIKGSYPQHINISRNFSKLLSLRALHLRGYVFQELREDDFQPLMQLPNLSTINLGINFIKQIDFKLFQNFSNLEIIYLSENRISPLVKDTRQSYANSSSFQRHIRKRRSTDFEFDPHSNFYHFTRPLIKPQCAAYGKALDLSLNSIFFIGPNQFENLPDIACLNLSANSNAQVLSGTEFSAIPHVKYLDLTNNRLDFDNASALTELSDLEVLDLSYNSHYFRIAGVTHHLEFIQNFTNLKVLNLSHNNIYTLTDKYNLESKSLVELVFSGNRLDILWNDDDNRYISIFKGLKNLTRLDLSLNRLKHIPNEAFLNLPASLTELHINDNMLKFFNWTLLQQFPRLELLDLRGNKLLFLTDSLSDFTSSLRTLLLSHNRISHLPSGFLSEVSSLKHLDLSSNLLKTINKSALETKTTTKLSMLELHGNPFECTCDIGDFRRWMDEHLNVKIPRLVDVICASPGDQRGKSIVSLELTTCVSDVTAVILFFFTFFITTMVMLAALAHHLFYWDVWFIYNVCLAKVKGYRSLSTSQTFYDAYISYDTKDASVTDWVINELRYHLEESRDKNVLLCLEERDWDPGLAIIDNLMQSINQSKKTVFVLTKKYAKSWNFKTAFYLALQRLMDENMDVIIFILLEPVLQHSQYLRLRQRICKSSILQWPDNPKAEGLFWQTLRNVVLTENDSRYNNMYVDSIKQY
# Experimental: After counting, the cell density was adjusted to 2 million cells/ml and incubated for 1 hour at 37° C., 5% CO2 for recovery. Following the recovery, the cells were plated by adding 50 μl per well (100,000 cells) to 384-well cell culture plates (Greiner) containing 250 nl of test antagonists in 100% DMSO per well, in a 10 points dose response in quadruplicates. PBMCs were incubated in the presence of antagonists for one hour at 37° C., 5% CO2 before being stimulated with TLR8 agonist. […] PBMCs were incubated in the presence of antagonist and the TLR8 agonist for an additional 6 hours at 37° C., 5% CO2. At the end of the incubation, the cell culture plates were centrifuged at 500 g for 5 min, and the cell culture supernatant was collected. The level of cytokines (TNFα and IL12p40) in the supernatant was measured by electrochemiluminescence immunoassays (Mesoscale Discovery) following manufacturer's recommended protocols.
# TLR7, sequence (Q9NYK1 27-1049): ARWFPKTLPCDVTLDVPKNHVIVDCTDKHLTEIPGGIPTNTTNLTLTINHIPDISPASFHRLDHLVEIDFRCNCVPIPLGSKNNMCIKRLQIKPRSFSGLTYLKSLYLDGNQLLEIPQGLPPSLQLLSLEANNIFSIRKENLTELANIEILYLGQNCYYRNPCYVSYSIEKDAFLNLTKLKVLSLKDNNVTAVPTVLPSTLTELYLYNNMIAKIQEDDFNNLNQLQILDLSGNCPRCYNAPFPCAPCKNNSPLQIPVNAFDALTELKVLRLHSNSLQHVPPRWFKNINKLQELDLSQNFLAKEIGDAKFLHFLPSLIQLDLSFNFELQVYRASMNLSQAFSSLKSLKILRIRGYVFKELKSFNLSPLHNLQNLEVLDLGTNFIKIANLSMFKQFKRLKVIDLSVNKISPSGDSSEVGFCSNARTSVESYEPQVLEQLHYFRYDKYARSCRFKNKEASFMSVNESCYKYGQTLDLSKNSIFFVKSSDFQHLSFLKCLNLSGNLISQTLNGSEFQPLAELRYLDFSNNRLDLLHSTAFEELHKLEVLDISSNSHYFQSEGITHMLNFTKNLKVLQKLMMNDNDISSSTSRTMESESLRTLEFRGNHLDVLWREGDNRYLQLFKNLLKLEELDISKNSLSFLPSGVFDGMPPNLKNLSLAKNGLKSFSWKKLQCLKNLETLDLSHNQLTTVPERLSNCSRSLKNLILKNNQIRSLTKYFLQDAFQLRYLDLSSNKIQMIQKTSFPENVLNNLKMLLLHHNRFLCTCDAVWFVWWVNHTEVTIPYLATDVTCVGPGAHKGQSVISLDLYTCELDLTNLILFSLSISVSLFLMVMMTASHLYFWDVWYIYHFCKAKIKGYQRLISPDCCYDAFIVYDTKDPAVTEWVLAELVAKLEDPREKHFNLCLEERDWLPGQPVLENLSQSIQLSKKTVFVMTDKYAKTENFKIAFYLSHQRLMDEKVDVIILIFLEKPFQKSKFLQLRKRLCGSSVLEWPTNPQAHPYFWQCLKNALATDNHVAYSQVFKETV
EC50 [1] [nM],EC50 [2] [nM],SMILES
0.2,9.95,Cc1c(C2CCC3(CC2)CN(C(=O)[C@@H]2CCCN2)C3)sc2[nH]c(-c3cc(C)c4ncnn4c3)c(C(C)C)c12 [Example 37]
0.12,6.92,Cc1nc2c(C)cc(-c3[nH]c4sc(C5CCNCC5)c(C)c4c3C(C)C)cn2n1 [Example 131]
1.19,19.5,Cc1c(-c2[nH]c3sc(C4CCN(C(=O)[C@@H]5CC(F)(F)CCN5)CC4)c(C)c3c2C(C)C)cn2ncnc2c1C [Example 282]
0.32,0.73,"Cc1c(-c2[nH]c3sc([C@@H]4C[C@@H]5C[C@H]4CN5C(C)C(N)=O)c(C)c3c2C(C)C)cn2ncnc2c1C (single isomer, unassigned) [Example 101]"
0.26,0.99,"Cc1c(-c2[nH]c3sc(C4CC(C(=O)N5CCNCC5)C4)c(C)c3c2C(C)C)cn2ncnc2c1C (stereo not shown) [Example 151, (3-(5-(7,8-dimethyl-[1,2,4]triazolo[1,5-a]pyridin-6-yl)-4-isopropyl-3-methyl-6H-thieno[2,3-b]pyrrol-2-yl)cyclobutyl)(piperazin-1-yl)methanone]"
0.66,0.45,CCNC(=O)CN1C[C@@H]2C[C@H]1C[C@H]2c1sc2[nH]c(-c3cn4ncnc4c(C)c3C)c(C(C)C)c2c1C [Example 186]
0.22,10.4,Cc1c(C2CCC3(CC2)CN(C(=O)[C@H]2CCCN2)C3)sc2[nH]c(-c3cc(C)c4ncnn4c3)c(C(C)C)c12 [Example 38]
< 0.05,1.76,Cc1c(-c2[nH]c3sc(C4CCC(N5CC(C)(O)C5)CC4)c(C)c3c2C(C)C)cn2ncnc2c1C (stereo not shown) [Example 304]
0.78,4.44,"Cc1c(-c2[nH]c3sc(C4CCC(N5CC6(CCNC6=O)C5)CC4)c(C)c3c2C(C)C)cn2ncnc2c1C (single isomer, unassigned) [Example 305, 2-[4-[5-(7,8-dimethyl-[1,2,4]triazolo[1,5-a]pyridin-6-yl)-4-isopropyl-3-methyl-6H-thieno[2,3-b]pyrrol-2-yl]cyclohexyl]-2,6-diazaspiro[3.4]octan-5-one]"
0.35,0.39,"Cc1c(-c2[nH]c3sc(C4CC5(CCN(CC(N)=O)C5)C4)c(C)c3c2C(C)C)cn2ncnc2c1C (single isomer, unassigned) [Example 85, 2-(2-(5-(7,8-dimethyl-[1,2,4]triazolo[1,5-a]pyridin-6-yl)-4 isopropyl-3-methyl-6H-thieno[2,3-b]pyrrol-2-yl)-6-azaspiro[3.4]octan-6-yl)acetamide]"
0.72,69.5,Cc1c(C23CC2CCN(CC(N)=O)C3)sc2[nH]c(-c3cc(C)c4ncnn4c3)c(C(C)C)c12 (stereo not shown) [Example 196]
0.25,9.94,Cc1c(C2CCC(C(=O)N3CCNCC3)CC2)sc2[nH]c(-c3cc(C)c4ncnn4c3)c(C(C)C)c12 (stereo not shown) [Example 310]
0.94,9.39,"Cc1c(-c2[nH]c3sc(C4CCN(C5CCCNC5=O)CC4)c(C)c3c2C(C)C)cn2ncnc2c1C (stereo not shown) [Example 286, 3-[4-[5-(7,8-dimethyl-[1,2,4]triazolo[1,5-a]pyridin-6-yl)-4-isopropyl-3-methyl-6H-thieno[2,3-b]pyrrol-2-yl]-1-piperidyl]piperidin-2-one]"
0.27,1.23,Cc1c(-c2[nH]c3sc([C@@H]4C[C@@H]5C[C@H]4CN5CCS(=O)(=O)N(C)C)c(C)c3c2C(C)C)cn2ncnc2c1C [Example 181]
0.07,0.32,CNS(=O)(=O)CCN1C[C@@H]2C[C@H]1C[C@H]2c1sc2[nH]c(-c3cn4ncnc4c(C)c3C)c(C(C)C)c2c1C [Example 182]
1.18,125,Cc1c(C2CCN(C(=O)[C@H]3CC(F)(F)CN3)CC2)sc2[nH]c(-c3cc(C)c4ncnn4c3)c(C(C)C)c12 [Example 39]
0.09,6.21,Cc1c(-c2[nH]c3sc(C4CCN(C(=O)[C@H]5CNCCO5)CC4)c(C)c3c2C(C)C)cn2ncnc2c1C [Example 110]
